Converted amounts (≈) assume the structure as drawn. Where a name gives a salt, the structure may show the parent alone.

Data set [1] concerns reference strains. Briefly: Antifungal activity, summary over reference strains. Type of data set: cell-based. More on the design: key to Antifungal Activity (level): (−) Means no antifungal activity; (±) low activity; (+) moderate activity; (++) high activity at the concentration mentioned. Conditions: for Antifungal Activity (level): Table 3; for antifungal activity: as reported in Table 1.

In data set [2] the test system is Candida parapsilosis ATCC 22019. Briefly: microbe, parasite or virus in culture. Conditions: Lodderomyces parapsilosis, ATCC22019, 24 h, pH 7.
Data set [3] concerns Saccharomyces cerevisiae ATCC 9763. Briefly: microbe, parasite or virus in culture. Conditions: ATCC9763, 24 h, pH 7.
Data set [4] concerns Candida albicans ATCC 10231. The data set is described as follows: microbe, parasite or virus in culture.
In data set [5] the test system is Candida krusei ATCC 6258. Briefly: microbe, parasite or virus in culture. The note with it: Pichia kudriavzevii, ATCC6258, 24 h, pH 7.
Data set [6] has as its system Candida glabrata ATCC 90030. Briefly: microbe, parasite or virus in culture. Conditions: Nakaseomyces glabratus, ATCC90030, 24 h, pH 7.
Data set [7] has as its system human topoisomerase II. Conditions: cited from earlier work.
For data set [8], the target named is yeast topoisomerase II (Saccharomyces cerevisiae, UniProt P06786). The data set is described as follows: Yeast topoisomerase II relaxation assay. Type of data set: biochemical. The note with it: supercoiled pBR322, tested at 1-200 μM. Here is the method: Due to the known activity of acridine and acridone derivatives as human topoisomerase inhibitors widely analysed for cancer chemotherapy, we decided to analyse the influence of Compound 1 as well as its R8 conjugate on the fungal equivalent of that enzyme. The relaxation of supercoiled plasmid DNA by yeast topoisomerase II (yTOPO II) was studied in the presence of different concentrations of both compounds.
yeast topoisomerase II, sequence (P06786 whole entry): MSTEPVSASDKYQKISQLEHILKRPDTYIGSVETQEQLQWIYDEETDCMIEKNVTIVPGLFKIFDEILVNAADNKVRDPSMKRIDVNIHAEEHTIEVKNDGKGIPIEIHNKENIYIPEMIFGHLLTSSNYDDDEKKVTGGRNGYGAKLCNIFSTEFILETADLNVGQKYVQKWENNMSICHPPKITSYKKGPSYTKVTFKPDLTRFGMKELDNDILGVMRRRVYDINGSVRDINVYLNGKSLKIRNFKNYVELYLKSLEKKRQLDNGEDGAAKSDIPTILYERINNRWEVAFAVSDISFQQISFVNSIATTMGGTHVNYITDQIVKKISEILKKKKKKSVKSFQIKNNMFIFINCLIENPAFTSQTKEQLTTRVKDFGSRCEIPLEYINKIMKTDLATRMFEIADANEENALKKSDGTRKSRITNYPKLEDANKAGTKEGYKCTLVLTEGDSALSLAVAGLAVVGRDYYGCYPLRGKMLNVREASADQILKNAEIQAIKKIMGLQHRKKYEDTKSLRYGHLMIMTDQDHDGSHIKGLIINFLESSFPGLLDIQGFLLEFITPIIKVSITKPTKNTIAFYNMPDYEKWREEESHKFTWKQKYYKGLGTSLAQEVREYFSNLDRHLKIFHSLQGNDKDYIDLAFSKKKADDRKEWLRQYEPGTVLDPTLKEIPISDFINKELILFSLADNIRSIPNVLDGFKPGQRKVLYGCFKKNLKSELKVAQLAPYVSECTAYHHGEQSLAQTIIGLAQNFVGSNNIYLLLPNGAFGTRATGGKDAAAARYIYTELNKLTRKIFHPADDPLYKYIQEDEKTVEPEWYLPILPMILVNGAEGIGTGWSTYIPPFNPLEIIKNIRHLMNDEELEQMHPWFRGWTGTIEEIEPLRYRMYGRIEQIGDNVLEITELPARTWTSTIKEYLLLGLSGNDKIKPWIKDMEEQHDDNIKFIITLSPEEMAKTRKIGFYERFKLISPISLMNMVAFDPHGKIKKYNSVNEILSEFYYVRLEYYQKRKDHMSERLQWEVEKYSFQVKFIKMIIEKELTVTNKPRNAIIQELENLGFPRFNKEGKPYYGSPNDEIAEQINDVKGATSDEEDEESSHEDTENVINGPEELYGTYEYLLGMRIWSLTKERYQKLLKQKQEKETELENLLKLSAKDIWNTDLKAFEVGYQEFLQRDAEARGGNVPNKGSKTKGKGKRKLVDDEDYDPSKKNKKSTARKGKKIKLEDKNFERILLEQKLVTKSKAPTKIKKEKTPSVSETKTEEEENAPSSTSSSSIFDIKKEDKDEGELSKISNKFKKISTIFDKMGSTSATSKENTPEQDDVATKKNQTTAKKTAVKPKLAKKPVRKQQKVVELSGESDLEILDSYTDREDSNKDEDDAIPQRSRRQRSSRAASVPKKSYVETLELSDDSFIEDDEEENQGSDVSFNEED
The inhibition of yeast topoisomerase II was analysed according to the relaxation assay kit from Inspiralis (Inspiralis Limited, Norwich, UK). Briefly, 250 ng of supercoiled pBR322 DNA (Thermo Fisher Scientific, Waltham, MA, USA), 1 mM ATP (Inspiralis Limited, UK), and 1–200 μM of the analysed compound were mixed with reaction buffer (1 mM Tris-HCl (pH 7.9), 10 mM KCl, 0.5 mM MgCl2, 0.2 % (by volume) glycerol). The reaction was initiated by the addition of an enzyme, allowed to proceed at 30 °C for 30 min and terminated by addition of 40% (m/V) sucrose, 100 mM Tris-HCl pH 8, 10 mM EDTA, and 0.5 mg mL^−1 Bromophenol Blue. Two-step extraction with chloroform:isoamyl alcohol (24:1, by volume) and butanol water was performed and mixtures were analysed on 1% agarose gel in 1 × TAE buffer, 3h, 4.5 V cm^−1. Gel was stained in GelRed 3 × staining solution (Biotium, Fremont, CA, USA) for 30 min and photographed with Gel Doc XR+Gel Documentation System (Bio-Rad: Hercules, CA, USA).

Data set [9] relates to Candida albicans. More on the design: method as in PMID 23563951; key to Antifungal Activity (level): (−) Means no antifungal activity; (±) low activity; (+) moderate activity; (++) high activity at the concentration mentioned. Conditions: cited from earlier work.
The test system of data set [10] is Candida albicans F2. The data set is described as follows: microbe, parasite or virus in culture.
Data set [11] has as its system Candida albicans Gu5. The data set is described as follows: microbe, parasite or virus in culture.
Data set [12] concerns Candida albicans Gu4. Briefly: microbe, parasite or virus in culture.
For data set [13], the system named is Candida albicans B3. The data set is described as follows: microbe, parasite or virus in culture.
For data set [14], the system named is C. albicans ATCC 10231. Type of data set: cell-based, Candida albicans. The note with it: 1/4 × MIC to 4 × MIC, RPMI medium. As to the method: Killing kinetics analysis was performed as described previously. […] After an appropriate time of incubation, 10 μL was withdrawn and spread on YPG agar plates. The number of colony-forming units (CFUs) was determined after overnight incubation of the plates at 37 °C. The killing kinetics analysis was performed with the GraphPad Prism 8 software (GraphPad Software Inc., San Diego, CA, USA).

Data set [15] relates to Candida albicans F5. The data set is described as follows: microbe, parasite or virus in culture.
In data set [16] the test system is Candida albicans B4. Briefly: microbe, parasite or virus in culture.

In turn, `NCCNc1ccc2ncn3c4ccc(O)cc4c(=O)c1c23` (as salt: hydrochloride) [Compound 1, 5-((2-Aminoethyl)amino)-8-hydroxy-6H-imidazo[4,5,1-de]acridin-6-one] had a melting point of 332 to 334 °C.

On to `Cc1ccc2c(c1)c(=O)c1c(NCCCN(C)C)ccc3nnn2c31` (as salt: hydrochloride) [Compound C-1296, 5-[-(3′-Dimethylamino)propylamino]-8-methyl-6H-[1,2,3]-triazolo[4,5,l-de]acridin-6-one], for which the melting point lay in the range of 120 to 122 °C.

The compound `CN(C)CCCNc1ccc2nnn3c4ccc(O)cc4c(=O)c1c23` (as salt: hydrochloride) [Compound C-1305, 5-[-(3′-Dimethylamino)propylamino]-8-hydroxy-6H-[1,2,3]-triazolo[4,5,l-de]acridin-6-one] gave a melting point of 228 to 230 °C.

The compound `CCNCCNc1ccc2nnn3c4ccc(O)cc4c(=O)c1c23` (as salt: hydrochloride) [Compound C-1410, 5-[2′-(Ethyl)-ethylenediamine]-8-hydroxy-6H-[1,2,3]-triazolo[4,5,l-de]acridin-6-one] had a melting point of 300 °C.

As to `Cc1ccc2c(c1)c(=O)c1c(NCCCN(C)C)ccc3nnn2c31` [Compound C-1296, 5-[-(3′-Dimethylamino)propylamino]-8-methyl-6H-[1,2,3]-triazolo[4,5,l-de]acridin-6-one], the “Antifungal Activity (level)” value in [1] is recorded as “±”. For the same compound, the “antifungal activity” value in [1] is “no antifungal activity was observed”. In addition, the MIC90 in [2] was > 64 µg/mL; in data set [3] it was 32 µg/mL (≈ 95.4 µM); in [4] (ATCC10231, 24 h, pH 7), > 64 µg/mL; in [5], > 64 µg/mL; in data set [6], > 64 µg/mL.

Turning to `CN(C)CCCNc1ccc2nnn3c4ccc(O)cc4c(=O)c1c23` [Compound C-1305, 5-[-(3′-Dimethylamino)propylamino]-8-hydroxy-6H-[1,2,3]-triazolo[4,5,l-de]acridin-6-one], the “Antifungal Activity (level)” value in data set [1] is on record as “−”. Also, the “antifungal activity” value in data set [1] is given as “no antifungal activity was observed”. Moreover, the “concentration that totally inhibited human topoisomerase II-mediated relaxation” value in [7] is 10 µM. The IC50 in [7] (read-out: concentration that diminished the relaxation reaction by 50%) was 2500 nM. Also, the MIC90 in data set [2] is > 64 µg/mL; in [3], > 64 µg/mL; in [4] (ATCC10231, 24 h, pH 7) it was > 64 µg/mL; in data set [5], > 64 µg/mL; in [6], > 64 µg/mL. In addition, in [8], the “concentration that totally inhibited yeast topoisomerase II-mediated relaxation” value was 50 µM.

Regarding `CCN(CC)CCNc1ccc2ncn3c4ccc(OC)cc4c(=O)c1c23` [Compound C-1330], the “Antifungal Activity (level)” value in [9] (Table 3, activity data published previously ref 8) was “+”. Moreover, the “antifungal activity” value in data set [9] was “showed phototoxic antifungal activity”.

Regarding `CCNCCNc1ccc2nnn3c4ccc(O)cc4c(=O)c1c23` [Compound C-1410, 5-[2′-(Ethyl)-ethylenediamine]-8-hydroxy-6H-[1,2,3]-triazolo[4,5,l-de]acridin-6-one], in [1], the “Antifungal Activity (level)” value is on record as “−”. Further, the “antifungal activity” value in [1] is “no antifungal activity was observed”. Moreover, the MIC90 is > 64 µg/mL in data set [2]; > 64 µg/mL in [3]; > 64 µg/mL in [4] (ATCC10231, 24 h, pH 7); > 64 µg/mL in [5]; > 64 µg/mL in [6].

Take `OC(Cn1cncn1)(Cn1cncn1)c1ccc(F)cc1F` [Fluconazole]: the MIC90 in [10] was 8 µg/mL (≈ 26.1 µM); in [4] (ATCC10231), 8 µg/mL (≈ 26.1 µM); in [11] it was > 64 µg/mL; in data set [12], 4 µg/mL (≈ 13.1 µM); in data set [13] it was 1 µg/mL (≈ 3.27 µM); in data set [15] it was > 64 µg/mL. In data set [16], this compound gave an MIC90 of 16 µg/mL (≈ 52.2 µM). Further, in data set [14], the “killing kinetics, kind of effect” value is “fungistatic”.

By melting point is commonly meant the temperature, or range, at which the solid turns liquid.

(Values after paper PMC8705783, “The Effect of Conjugation with Octaarginine, a Cell-Penetrating Peptide on Antifungal Activity of Imidazoacridinone Derivative” (International Journal of Molecular Sciences, 2021).)
